Measured values as given in patent US20250228878A1, “METHOD FOR THE SYNTHESIS OF EVOC PROBES” (OWLSTONE MEDICAL LIMITED, priority 2021, published 2025).

Tests used:
blood cells = test: D5-ethanol release in blood incubated with D5-EG or D5-EG-ME (headspace measurement); type: cell-based; settings: human blood, 37° C., 2 hours
Description: Aim—The following experiment was performed to compare the levels of D5-ethanol produced by blood cells from both D5-ethyl-βD-glucuronide and the D5-ethyl-βD-glucuronide-methyl ester impurity. To understand how the probe behaves in human blood. To determine the background cleavage of the probe (D5-ethyl-βD-glucuronide) and the methyl ester (D5-ethyl-βD-glucuronide-methyl ester) in blood at different concentrations. The cleaved D5-ethanol was extracted from the headspace of the blood and measured with the D5-ethanol analytical method.
• Dilute D5-ethyl-βD-glucuronide in PBS to 1 ug/ul. • Dilute 10 ul of this in 90 ul PBS to 100 ng/ul to use for smaller doses. • Blood drawn on the same day will be despatched to OML after it has been screened. • Aliquot 600 ul of blood into ITEX headspace vials. 10 vials for probe samples and 10 vials for methyl ester samples. • Add indicated concentration of D5-ethyl-βD-glucuronide (Table 1) and D5-ethyl-bD-glucuronide meth methyl ester (Table 2) in each vial. • Incubate all samples at 37° C. for 2 hours in the water bath. • After 2 hours add 100 uM D-saccharic acid-1,4-lactone with a syringe through septum of each ITEX vial and mix gently to inhibit β-glucuronidase activity and put on ice (4° C.) • Place samples on ITEX autosampler and measure D5-ethanol with D5-ethanol analytical method
Results—β-glucuronidase is only expected to be present intracellularly in blood cells. D5-ethyl-βD-glucuronide (D5-EG) is not cell permeable and would therefore not enter into the cells to get cleaved by b-glucuronidase to produce D5-ethanol. Low D5-ethanol levels are therefore expected in blood when incubated with D5-ethyl-βD-glucuronide.
D5-ethyl-βD-glucuronide-methyl ester (D5-EG-ME) is expected to be more cell permeable. If this is the case it would be able to enter into the cell to get cleaved by intracellular β-glucuronidase resulting in an increased in D5-ethanol production.

β-glucuronidase = biological target: T1, β-glucuronidase (Homo sapiens, UniProt P08236); test: Breath test: D5-ethanol in exhaled breath after intravenous probe administration (TD-GC-MS); type: in vivo; settings: for D5-ethanol detected on breath: 2 mg/kg intravenous
T1 construct: from tissue; host or cells: in vivo, human subjects (healthy subjects and a lung cancer patient); endogenous enzyme
T1 sequence (P08236 23-651): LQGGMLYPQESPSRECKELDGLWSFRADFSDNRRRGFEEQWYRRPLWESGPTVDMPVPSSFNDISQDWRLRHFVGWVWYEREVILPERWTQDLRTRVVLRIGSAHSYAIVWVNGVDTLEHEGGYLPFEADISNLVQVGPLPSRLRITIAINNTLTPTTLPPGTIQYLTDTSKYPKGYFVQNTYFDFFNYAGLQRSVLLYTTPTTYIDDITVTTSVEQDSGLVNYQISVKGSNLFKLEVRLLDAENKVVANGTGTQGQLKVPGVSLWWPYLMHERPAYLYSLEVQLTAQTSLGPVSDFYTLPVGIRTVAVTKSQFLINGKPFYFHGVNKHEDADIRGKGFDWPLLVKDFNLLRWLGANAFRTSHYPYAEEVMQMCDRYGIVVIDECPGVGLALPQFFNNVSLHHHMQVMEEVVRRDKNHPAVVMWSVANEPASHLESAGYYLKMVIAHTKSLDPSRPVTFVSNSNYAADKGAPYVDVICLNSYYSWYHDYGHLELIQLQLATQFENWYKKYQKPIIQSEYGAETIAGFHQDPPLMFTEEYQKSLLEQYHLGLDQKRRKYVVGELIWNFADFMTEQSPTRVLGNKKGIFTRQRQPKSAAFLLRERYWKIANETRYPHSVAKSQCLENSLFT
Description: D5-ethyl-βD-glucuronide was administered to healthy subjects and a lung cancer patient at a concentration of 2 mg/kg. Administration was intravenous.
The concentration of the metabolite was then measured in breath samples. Breath samples were collected using ReCIVA® Breath Sampler at the indicated times following probe administration. Following breath collection sorbent tubes were removed from ReCIVA®, capped off and sent to Owlstone Medical for analysis. At Owlstone Medical the sorbent tubes were analysed for D5-ethanol using TD-GC-MS.

[1] = system: tumor specific extracellular β-glucuronidase; settings: healthy versus tumor bearing mice; cited from earlier work
[2] = highest concentration tested (FIG. 2)

## [2H]C([2H])([2H])C([2H])([2H])O[C@@H]1O[C@H](C(=O)O)[C@@H](O)[C@H](O)[C@H]1O [D5-EG, D5-ethyl-βD-glucuronide]
Blood cells; [2]
  D5-ethanol production from blood cells: only a small amount of D5-ethanol were produced
β-glucuronidase; healthy controls
  D5-ethanol detected on breath: No D5-ethanol was detected
β-glucuronidase; lung cancer patient (Stage IIA)
  D5-ethanol detected on breath: A D5 ethanol signal was detected
β-glucuronidase; lung cancer patient, 2 mg/kg intravenous (FIG. 6)
  earliest time at which the metabolite (D5-ethanol) can be detected in breath after administration: 10 min
[1]
  D5-ethanol signal in breath: discriminatory D5-ethanol signal in the breath of mice with tumors

## [2H]C([2H])([2H])C([2H])([2H])O[C@@H]1O[C@H](C(=O)OC)[C@@H](O)[C@H](O)[C@H]1O [D5-EG-ME, D5-ethyl-βD-glucuronide-methyl ester]
Blood cells; [2]
  D5-ethanol production from blood cells: much higher D5-ethanol levels produced
Blood cells; second highest concentration tested (FIG. 2)
  D5-ethanol production from blood cells: much higher D5-ethanol levels produced
